Data as given in patent US20100104621A1, “TREATING ADHD AND OTHER DISEASES INVOLVING INFLAMMATION” (CONNECTED HEALTH SYSTEMS, LLC, priority 2007, published 2010).

Tests used:
[1] = tested on: pyramidal neurons in the medial prefrontal cortex; details: after 12 days of continuous administration; cited from earlier work
[2] = tested on: VEGF; details: animal studies; cited from earlier work
[3] = tested on: ovarian cancer; details: in 10 days, animal studies; cited from earlier work
[4] = tested on: patient with OCD and ADHD, and their child; assay: Example 4: family with history of ADHD, OCD and cancer; assay type: in vivo, human
From the text: The 5HT2A receptor has been associated with OCD, Seasonal Affective Disorder, Alcoholism, and a predisposition toward Schizophrenia. The gene for this receptor is found on chromosome 13. A patient presents with OCD and ADHD. Two of their children also are diagnosed with OCD and ADHD. […] They test positive for BRCA2 which is also found on chromosome 13 in the same region as the gene for the 5HT2A receptor.
Lowered catecholamines lead to slightly elevated prolactin and can alter GnRH. Elevated GnRH leads to spikes in estrogen and progesterone and may eventually lead to premature ovarian failure along with alterations in inflammation and co-factors. Elevated interleukins lead to increased free radical production and damage to DNA. Lowered dopamine would allow for angiogenesis. Elevated interleukins could induce CREB and increase the expression of ICAM and VCAM. BRCA2 lowers p53, p21 (tumor suppressor genes) as well as RAD51, which repairs damage to DNA. Catecholamines may interact with genes involved in cancer via common second messenger systems. Laboratory tests reveal that the patient has a high vitamin B6 level of 100, and an abnormal amino acid profile.
Treatment of the patient includes administering an extended release CNS stimulant at an appropriate dosage to achieve the desired therapeutic effect, substantially around the clock. […]

[5] = tested on: person with stage 4 ovarian cancer; assay: Example 6: person with stage 4 ovarian cancer; assay type: in vivo, human; details: with Adderall XR
From the text: A person presents with stage 4 ovarian cancer, skin picking, irritable bowel syndrome, PMS, allergies, and a tonsillectomy. They are BRCA1 positive and lost their parent due to breast cancer. Other family members have succumbed to breast cancer, pancreatic cancer, and colon cancer. They are screened for ADHD and is started on Adderall XR and titrated up to 15 mgs three times a day. They are tapered off Prozac for depression. Six weeks later they state that their depression is gone and their energy level is back to normal and their strength is retuning. Their nausea is also gone. […] When they ran out of vitamin B6, their skin picking returns in one week, but stops the day they resume taking vitamin B6.
Catecholamines may interact with genes involved in cancer in certain tissues. BRCA1 knocks p21, p53, and RAD51 out. Genes can be turned on and off based on signaling. Their amino acid profile fits with a defect in pyridoxine-5′-phosphate oxidase which is located on […]. This is beside BRCA1 on chromosome 17. It is possible the patient has a defect in SLC6A4 not ADHD 2 on 17p11.2. 17p11.2 is the site of serine hydroxymethyltransferase. Additionally, it is possible that second messengers that are inactivated by BRCA-1 are responsible for lowering their catecholamines. […]

[6] = tested on: obese person diagnosed with ADHD; assay: Example 5: treatment of obese person with ADHD; assay type: in vivo, human; details: with Adderall XR; amino acid supplements for 4 months then stopped
From the text: An obese person presents complaining of depression. They are on Lipitor for high cholesterol and has a heart rate of 116 and a blood pressure of 166/112. They also have “heart burn”. They are diagnosed with ADHD and titrated up to 15 mgs of Adderall XR three times a day. Their heart rate decreases to 100 at the first visit four weeks later and after 8 weeks it is 88. Based on lab reports, their vitamin B6 level is elevated at 56 and they are deficient in arginine, ornithine, histidine, threonine, and taurine along with other amino acids. They also have an elevated IL-6 level. Their vitamin D3 level is also very low. They are started on P-5-P and is supplemented with the aforementioned amino acids to help replenish their body. Their taurine level is 18 and normal is at 54. They are a candidate for developing a cardiac arrhythmia.
[…] Their blood pressure and heart rate continue to decline and they begin to lose weight despite having a normal appetite. […] Their depression is gone and they are dreaming about becoming a lawyer. They remain on Adderall XR, however their dose is decreased to 10 mgs three times a day. They remain on P-5-P. The patient's amino acid profile is normal and their CRP is normal. CRP is an indirect measure of IL-6 and is impacted by low levels of P-5-P.

**Q.** For `CC(N)Cc1ccccc1` (centres unmarked) [amphetamine], which “dendritic length and branches of pyramidal neurons in the medial prefrontal cortex” value [1] is on record?
**A.** increase in dendritic length and branches

**Q.** Which “effect on VEGF” value [2] does the source give for `NCCc1ccc(O)c(O)c1` [Dopamine] here?
**A.** inhibit

**Q.** What about the “shrinkage of ovarian cancer” value [3] of the same molecule?
**A.** 80%

**Q.** Which amino acid profile ([4]; child, with around the clock stimulant, fish oil and antioxidants) does the source give for `Cc1ncc(COP(=O)(O)O)c(C=O)c1O` [P-5-P, pyridoxal 5′-phosphate] here?
**A.** returns to normal

**Q.** What about the amino acid profile ([4]; parent, 100 mgs, with extended release CNS stimulant) of the same molecule?
**A.** corrects

**Q.** And the skin picking [5]?
**A.** stops that same day

**Q.** What about the CRP [6] of the same molecule?
**A.** normal

**Q.** And the amino acid profile [6]?
**A.** normal
